Earlier results as cited in publication PMC3404106, “Pharmacology of DB844, an Orally Active aza Analogue of Pafuramidine, in a Monkey Model of Second Stage Human African Trypanosomiasis” (PLoS Neglected Tropical Diseases, 2012).

Tested on: GVR35 CNS model of HAT
Set-up: method as in PMID 19620327
Conditions: cited from earlier work

CONC(=N)c1ccc(-c2ccc(-c3ccc(C(=N)NOC)cn3)o2)cc1 [DB844, N-methoxy-6-{5-[4-(N-methoxyamidino)phenyl]-furan-2-yl}-nicotinamidine]
cure of 2nd stage experimental murine HAT infection (DB844 at 100 mg/kg): curative | animals cured (mice, oral DB844 (100 mg/kg×5 days)): 5/5
